Measured values published in patent US20030199578A1, “Naphthalene amides as potassium channel openers” (priority 2002, published 2003).

Legend:
[1] = system: Landrace pig bladder strips; test: In vitro functional model: field-stimulated bladder tissue strips; conditions: dose dependent, concentration range 10^−9 to 10^−5 M, control agonist
Description: Compounds were evaluated for functional potassium channel opening activity using tissue strips obtained from Landrace pig bladders. Landrace pig bladders were obtained from female Landrace pigs of 9-30 kg. Landrace pigs were euthanized with an intraperitoneal injection of pentobarbital solution, Somlethal®, J. A. Webster Inc., Sterling Mass. The entire bladder was removed and immediately placed into Krebs Ringer bicarbonate solution (composition, mM: NaCl, 120; NaHCO3, 20; dextrose, 11; KCl, 4.7; CaCl2, 2.5; MgSO4, 1.5; KH2PO4, 1.2; K2EDTA, 0.01, equilibrated with 5% CO2/95% O2 pH 7.4 at 37° C.). Propranolol (0.004 mM) was included in all of the assays to block β-adrenoceptors. The trigonal and dome portions were discarded. Strips 3-5 mm wide and 20 mm long were prepared from the remaining tissue cut in a circular fashion. The mucosal layer was removed. One end was fixed to a stationary glass rod and the other to a Grass FT03 transducer at a basal preload of 1.0 gram. Two parallel platinum electrodes were included in the stationary glass rod to provide field stimulation of 0.05 Hz, 0.5 milli-seconds at 20 volts. […] The maximal efficacy of each compound (expressed as % relative to P1075) is reported. […] Agonist potencies were also expressed as an index relative to P1075. The index was calculated by dividing the ED50 for P1075 by the ED50 for the test agonist in a given tissue. […]

Compound	melting point	effect on stimulated twitch of bladder strips [1]
CC(=O)Nc1c(C(O)(C(F)(F)F)C(F)(F)F)cc(Cl)c2ccccc12 [Example 9, N-[4-Chloro-2-(2,2,2-trifluoro-1-hydroxy-1-trifluoromethyl-ethyl)-naphthalen-1-yl]-acetamide]	161 to 162 °C	
O=C(Nc1c(C(O)(C(F)(F)F)C(F)(F)F)ccc2ccccc12)c1ccno1 [Example 41, Isoxazole-5-carboxylic acid [2-(2,2,2-trifluoro-1-hydroxy-1-trifluoromethyl-ethyl)-naphthalen-1-yl]-amide]	162 to 164 °C	
CCC(C)(C)N=C(NC#N)Nc1cccnc1 [Example P1075]		completely eliminated the stimulated twitch
